# According to publication PMC7962978, “PSMA-D4 Radioligand for Targeted Therapy of Prostate Cancer: Synthesis, Characteristics and Preliminary Assessment of Biological Properties” (International Journal of Molecular Sciences, 2021):
# Where “and” joins values, the source holds several entries; their conditions need not be identical. Equal entries are not always repeated.
# Tests used:
# [1] = tested on: LNCaP cells; test: Cell uptake (total binding) and internalization in LNCaP cells; type: cell-based, human; details: 37 °C, 2 h
# Procedure: To determine cell uptake and internalization of [^177Lu]Lu-PSMA-D4 and [^90Y]Y-PSMA-D4, LNCaP cells (5 × 10^5 cells well^−1) were incubated in un-supplemented RPMI 1640 medium with one concentration of tested radioligands on 12-well plates in 37 °C per 2 h. After the appropriate time, the medium was removed, and cells were washed twice using phosphate buffer saline (PBS, IITD PAN, Wroclaw, Poland). The cells were treated twice with 1 mL of 50 mM glycine in 0.1 M NaCl at a pH of 2.8 and incubated for 5 min at room temperature to collect extracellularly bound compound. The internalization was determined by measuring the radioactivity of 1mL of 1 M NaOH used for cell lysis. Total binding was calculated as a sum of the membrane and internalized fractions measured using Wallac Wizard 1470 γ counter. As a control, [^177Lu]Lu-PSMA-617 and [^68Ga]Ga-PSMA-11 were used.
# [2] = tested on: PC-3 PIP (PSMA positive) tumor-bearing mice; design: method as in PMID 28102507; details: PC-3 PIP tumor, 2 h p.i.v., 1 nmol, BALB/c Nude mice; cited from earlier work
# [3] = Lipophilicity determination (logD), shake-flask method; type: physicochemical; details: n-octanol / PBS pH 7.4, shake-flask
# Procedure: The partition coefficient logD of the radioligands was determined by the shake-flask method. The solution of 10 to 50 MBq of radiolabeled PSMA ligands (D-4, 617, 11, I&T) in 1.0 mL of phosphate-buffered saline (PBS, pH 7.4) was added to 1.0 mL of presaturated n-octanol solution (n = 3). Vials were shaken vigorously for 10 min. To achieve quantitative phase separation, the vials were centrifuged at 1600 rpm for 5 min. The radioactivity concentration in a defined volume of both the aqueous and the organic phase in six replicates each was measured in a γ-counter (Wizard 1470, Wallac, Turku, Finland). The partition coefficient was calculated as the logarithm of the ratio between counts per minute (cpm) measured in the n-octanol phase to the PBS phase counts.
# [4] = molecular target: PSMA; design: method as in earlier work; details: ref 34 (Tönnesmann R et al.); cited from earlier work
# [5] = Blood pharmacokinetics, one-phase decay model, LNCaP tumor-bearing mice; type: in vivo; details: i.v.
# Procedure: The pharmacokinetic analysis of the [^47Sc]Sc-PSMA-D4 was based on the curves of the %ID g^−1 accumulated in the blood. The pharmacokinetic parameters were determined according to a one-phase decay model. The following parameters were used: K (rate constant) and half-life calculated as ln(2)/K.
# For blood activity data, a one-phase exponential decay model was used to model the percentage of remaining activity (%ID g^−1) as a time post-injection function.
# [6] = molecular target: T1, PSMA antigen (Homo sapiens, UniProt Q04609); test: Saturation radioligand binding assay on LNCaP (PSMA positive) and PC3 (PSMA negative) cell membranes; details: for Kd: LNCaP cell membranes, 2 h, 37 °C; for Specific Binding: total binding on LNCaP minus non-specific binding on PC3 membranes
# T1 construct: PSMA antigen expressed on LNCaP cell membranes; endogenous in cells; host or cells: LNCaP cell membranes (PC3 membranes as PSMA-negative control)
# T1 sequence (Q04609 whole entry): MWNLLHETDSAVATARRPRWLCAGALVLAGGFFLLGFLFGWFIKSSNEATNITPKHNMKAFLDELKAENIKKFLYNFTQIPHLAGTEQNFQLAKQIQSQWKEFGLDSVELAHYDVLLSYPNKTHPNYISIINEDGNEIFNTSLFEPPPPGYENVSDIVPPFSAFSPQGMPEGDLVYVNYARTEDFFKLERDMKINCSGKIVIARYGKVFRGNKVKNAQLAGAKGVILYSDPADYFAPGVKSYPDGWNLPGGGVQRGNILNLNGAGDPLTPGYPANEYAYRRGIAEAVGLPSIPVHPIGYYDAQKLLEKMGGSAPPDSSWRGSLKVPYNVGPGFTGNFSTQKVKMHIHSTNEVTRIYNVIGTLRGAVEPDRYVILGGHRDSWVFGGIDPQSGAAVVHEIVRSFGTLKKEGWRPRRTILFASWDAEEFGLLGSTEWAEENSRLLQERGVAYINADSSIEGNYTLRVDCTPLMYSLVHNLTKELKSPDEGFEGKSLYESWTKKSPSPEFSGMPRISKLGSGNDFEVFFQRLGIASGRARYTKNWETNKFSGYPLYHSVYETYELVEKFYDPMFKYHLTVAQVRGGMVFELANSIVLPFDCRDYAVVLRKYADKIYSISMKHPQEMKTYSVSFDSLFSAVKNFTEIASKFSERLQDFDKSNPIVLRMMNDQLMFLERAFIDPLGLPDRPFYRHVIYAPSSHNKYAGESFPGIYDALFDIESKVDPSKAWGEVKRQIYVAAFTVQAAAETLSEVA
# Procedure: The equilibrium constant (KD) was determined by a saturation binding experiment performed in PSMA positive LNCaP and PSMA negative PC3 cell membranes isolated according to the procedure developed by Fichna et al.. The 50 mcL of LNCaP and PC3 cell membranes were seeded on special MultiScreen™ 96 well filter plates (Merck, Warsaw, Poland) and incubated for 2 h with increasing concentration of [^177Lu]Lu-PSMA-D4, [^90Y]Y-PSMA-D4, and […] (0.016–194 nM) at 37 °C. After incubation, the unbound radiocomplexes were filtered under vacuum, and the membranes were washed twice using PBS. The filters containing membranes with the attached radiotracer were extruded into tubes using MultiScreen Multile Punch (Merck). The number of associated inhibitors was determined by measuring the radioactivity of squeezed filters using Wallac Wizard 1470 γ counter. The KD and Bmax were calculated by nonlinear regression using the GraphPad Prism statistic program.
# [7] = tested on: LNCaP tumor-bearing mice; test: Ex vivo biodistribution in mice bearing LNCaP tumor
# Procedure: An experimental tumor murine model was induced using LNCaP cell, which grew to 80–90% confluence before trypsinization and formulation in Matrixgel™ Basement Membrane Matrix (Bedford, MA, USA) for implantation into mice. The mice were subcutaneously injected in the shoulder with 200 mcL bolus containing a suspension of 10^6 freshly harvested cell line LNCaP in Matrixgel™. This procedure was performed under anaesthesia with 2% isoflurane. The animals were kept under pathogen-free condition, and experiments were performed 2–3 weeks later when a tumor reached a volume of approximately 150 ± 60 mm^3. Then, the animals were randomized into two groups (25 mice per group, five mice per time point): Group 1, treated with a single intravenous injection of [^90Y]Y-PSMA-D4 (0.1 mL, 0.1 mcg, 15.5 MBq, SA 16.7 GBq mg^−1 = 17.2 GBq mcmol^−1) and Group 2, treated with a single intravenous injection of [^47Sc]Sc-PSMA-D4 (0.1 mL, 0.19 mcg, 10 MBq, SA 4.8 GBq mg^−1 = 4.57 GBq mcmol^−1).
# At 1, 2, 4, 6, 24, and 48 h after injection, the animals were euthanized by cervical dislocation and dissected. Selected organs and tissues were assayed for their radioactivity and weighted. The physiological distribution was calculated and expressed in terms of the percentage of administrated radioactivity found in each of the selected organs or tissues per gram (%ID g^−1).
# Results are provided as mean ± SD. The results of physiological distribution are presented as a percentage of the dose administered per gram of tissue (%ID g^−1) as average value with standard deviation (%ID g^−1; mean ± standard deviation (SD)) with n representing the number of animals per group. Data were statistically analyzed using GraphPad Prism version 8.0.0 for Window.
# [8] = Blood pharmacokinetics, one-phase model, healthy rats; type: in vivo; details: healthy rats (data not presented)
compound,measurement,setting,value
O=C([O-])CN1CCN(CC(=O)[O-])CCN(CC(=O)NCC2CCC(C(=O)NC(Cc3ccc4ccccc4c3)C(=O)NCCCCC(NC(=O)NC(CCC(=O)O)C(=O)O)C(=O)O)CC2)CCN(CC(=O)[O-])CC1.[177Lu+3] (stereo not drawn) [[^177Lu]Lu-PSMA-617],Internalization,[1],35.4–38.9%
same,Total Binding,[1],10.2–16.8%
same,Internalization,[1]; listed as [^177Lu]Lu-PSMA 617,38.9 ± 1.7%
same,Total Binding,[1]; listed as [^177Lu]Lu-PSMA 617,12.8 ± 1.0%
same,kidneys,[2],3.97 ± 0.56 %ID g^−1
same,spleen,[2],0.21 ± 0.03 %ID g^−1
same,tumor,[2],45.8 ± 4.02 %ID g^−1
same,logD,[3],−5.12 ± 0.07
same,Kd,[4],2 ± 0.3 nM
"O=C(O)CC[C@H](NC(=O)N[C@@H](CCCCNC(=O)[C@H](Cc1ccc2ccccc2c1)NC(=O)[C@H]1CC[C@H](CNC(=O)CN2CCN(CC(=O)O)CCN(CC(=O)O)CCN(CC(=O)O)CC2)CC1)C(=O)O)C(=O)O [PSMA-617, Glu-CO-Lys-2-naphthyl-L-Ala-cyclohexane-DOTA]",IC50,[4],2.7 ± 0.1 nM
O=C([O-])CN1CCN(CC(=O)[O-])CCN(CC(=O)NCC2CCC(C(=O)NC(Cc3c[nH]c4ccccc34)C(=O)NCCCCC(NC(=O)NC(CCC(=O)O)C(=O)O)C(=O)O)CC2)CCN(CC(=O)[O-])CC1.[47Sc+3] (stereo not drawn) [[^47Sc]Sc-PSMA-D4],blood half-life,[5],10.4 min and 10.2 min
same,Kd,[6],3.4 ± 2 nM
same,Specific Binding,[6],98.8 ± 0.9%
same,T/B (ratio tumor to blood),[7]; 1 h after i.v. injection,31.6
same,T/K (ratio tumor to kidneys),[7]; 1 h after i.v. injection,1.0
same,T/M (ratio tumor to muscle),[7]; 1 h after i.v. injection,135.2
same,blood,[7]; 1 h after i.v. injection,0.29 ± 0.08 %ID g^−1
same,kidneys,[7]; 1 h after i.v. injection,9.46 ± 1.44 %ID g^−1
same,large intestine,[7]; 1 h after i.v. injection,0.09 ± 0.03 %ID g^−1
same,liver,[7]; 1 h after i.v. injection,0.13 ± 0.02 %ID g^−1
same,muscle,[7]; 1 h after i.v. injection,0.10 ± 0.06 %ID g^−1
same,small intestine,[7]; 1 h after i.v. injection,0.35 ± 0.19 %ID g^−1
same,spleen,[7]; 1 h after i.v. injection,0.52 ± 0.19 %ID g^−1
same,stomach,[7]; 1 h after i.v. injection,0.23 ± 0.09 %ID g^−1
same,tumor,[7]; 1 h after i.v. injection,9.24 ± 5.13 %ID g^−1
same,urine,[7]; 1 h after i.v. injection,89.23 ± 2.63 %ID
same,T/B (ratio tumor to blood),[7]; 4 h after i.v. injection,120.9
same,T/K (ratio tumor to kidneys),[7]; 4 h after i.v. injection,4.3
same,T/M (ratio tumor to muscle),[7]; 4 h after i.v. injection,24.3
same,blood,[7]; 4 h after i.v. injection,0.08 ± 0.04 %ID g^−1
same,kidneys,[7]; 4 h after i.v. injection,2.16 ± 0.86 %ID g^−1
same,large intestine,[7]; 4 h after i.v. injection,0.70 ± 0.48 %ID g^−1
same,liver,[7]; 4 h after i.v. injection,0.08 ± 0.04 %ID g^−1
same,muscle,[7]; 4 h after i.v. injection,0.39 ± 0.17 %ID g^−1
same,small intestine,[7]; 4 h after i.v. injection,0.41 ± 0.30 %ID g^−1
same,spleen,[7]; 4 h after i.v. injection,0.57 ± 0.31 %ID g^−1
same,stomach,[7]; 4 h after i.v. injection,0.39 ± 0.17 %ID g^−1
same,tumor,[7]; 4 h after i.v. injection,9.22 ± 2.21 %ID g^−1
same,urine,[7]; 4 h after i.v. injection,93.42 ± 2.07 %ID
same,T/B (ratio tumor to blood),[7]; 6 h after i.v. injection,207.6
same,T/K (ratio tumor to kidneys),[7]; 6 h after i.v. injection,6.1
same,T/M (ratio tumor to muscle),[7]; 6 h after i.v. injection,251.0
same,blood,[7]; 6 h after i.v. injection,0.04 ± 0.01 %ID g^−1
same,kidneys,[7]; 6 h after i.v. injection,1.42 ± 0.28 %ID g^−1
same,large intestine,[7]; 6 h after i.v. injection,0.69 ± 0.17 %ID g^−1
same,liver,[7]; 6 h after i.v. injection,0.06 ± 0.01 %ID g^−1
same,muscle,[7]; 6 h after i.v. injection,0.03 ± 0.02 %ID g^−1
same,small intestine,[7]; 6 h after i.v. injection,0.11 ± 0.07 %ID g^−1
same,spleen,[7]; 6 h after i.v. injection,0.08 ± 0.04 %ID g^−1
same,stomach,[7]; 6 h after i.v. injection,0.08 ± 0.09 %ID g^−1
same,tumor,[7]; 6 h after i.v. injection,8.65 ± 3.19 %ID g^−1
same,urine,[7]; 6 h after i.v. injection,94.89 ± 1.34 %ID
same,T/B (ratio tumor to blood),[7]; 24 h after i.v. injection,467.3
same,T/K (ratio tumor to kidneys),[7]; 24 h after i.v. injection,18.4
same,T/M (ratio tumor to muscle),[7]; 24 h after i.v. injection,229.0
same,blood,[7]; 24 h after i.v. injection,0.01 ± 0.01 %ID g^−1
same,kidneys,[7]; 24 h after i.v. injection,0.29 ± 0.09 %ID g^−1
same,large intestine,[7]; 24 h after i.v. injection,0.12 ± 0.12 %ID g^−1
same,liver,[7]; 24 h after i.v. injection,0.03 ± 0.01 %ID g^−1
same,muscle,[7]; 24 h after i.v. injection,0.02 ± 0.02 %ID g^−1
same,small intestine,[7]; 24 h after i.v. injection,0.34 ± 0.18 %ID g^−1
same,spleen,[7]; 24 h after i.v. injection,0.04 ± 0.01 %ID g^−1
same,stomach,[7]; 24 h after i.v. injection,0.05 ± 0.06 %ID g^−1
same,tumor,[7]; 24 h after i.v. injection,5.28 ± 3.01 %ID g^−1
same,urine,[7]; 24 h after i.v. injection,97.89 ± 1.22 %ID
same,T/B (ratio tumor to blood),[7]; 48 h after i.v. injection,78.8
same,T/K (ratio tumor to kidneys),[7]; 48 h after i.v. injection,16.0
same,T/M (ratio tumor to muscle),[7]; 48 h after i.v. injection,66.7
same,blood,[7]; 48 h after i.v. injection,0.05 ± 0.03 %ID g^−1
same,kidneys,[7]; 48 h after i.v. injection,0.26 ± 0.14 %ID g^−1
same,large intestine,[7]; 48 h after i.v. injection,1.63 ± 0.31 %ID g^−1
same,liver,[7]; 48 h after i.v. injection,0.04 ± 0.01 %ID g^−1
same,muscle,[7]; 48 h after i.v. injection,0.06 ± 0.06 %ID g^−1
same,small intestine,[7]; 48 h after i.v. injection,0.45 ± 0.13 %ID g^−1
same,spleen,[7]; 48 h after i.v. injection,0.10 ± 0.09 %ID g^−1
same,stomach,[7]; 48 h after i.v. injection,0.03 ± 0.04 %ID g^−1
same,tumor,[7]; 48 h after i.v. injection,4.11 ± 1.08 %ID g^−1
same,urine,[7]; 48 h after i.v. injection,95.37 ± 1.89 %ID
O=C([O-])CN1CCN(CC(=O)[O-])CCN(CC(=O)NCC2CCC(C(=O)NC(Cc3c[nH]c4ccccc34)C(=O)NCCCCC(NC(=O)NC(CCC(=O)O)C(=O)O)C(=O)O)CC2)CCN(CC(=O)[O-])CC1.[177Lu+3] (stereo not drawn) [[^177Lu]Lu-PSMA-D4],Internalization,[1],37.0 ± 3.3%
same,Total Binding,[1],10.2%
same,blood half-life,[8],33 min
same,Kd,[6],2.4 ± 0.3 nM
same,Specific Binding,[6],99.1 ± 0.3%
same,logD,[3],−5.16 ± 0.07
